Data set [1] relates to viral activity. The settings on record: cited from earlier work.
Data set [2] concerns HIV-1. In words: Anti-retroviral activity in CEM cells chronically infected with HIV-1 (soluble formazan assay). Format: cell-based. As to conditions: Human immunodeficiency virus 1, CCRF-CEM, 50% inhibition of viral activity.
Description: The concentration of compound that inhibits 50% of viral activity (EC50 ; determined as described in Weislow et al. (1989), supra) and the inhibition constant (Ki, as defined in Example 7) for the compound were determined.
Data set [3] deals with CEM cells. In words: Toxicity of DD-5. Format: cell-based. The settings on record: even at doses as high as 10^-4 M.
Data set [4] relates to p24 synthesis. Nature of the data set: Suppression of p24 synthesis. Format: cell-based, HIV-1. The settings on record: Human immunodeficiency virus 1; read-out: concentrations suppressing p24 synthesis.
Data set [5] addresses T1, HIV-1 protease (wild-type, WT) (Human immunodeficiency virus type 1 group M subtype B, UniProt P04585).
T1 construct: purified HIV-1 protease (wild-type, WT)
In words: Inhibition of purified wild-type HIV-1 protease (fluorogenic substrate cleavage), Ki and % inhibition. Format: biochemical. Here is the method:
(§1) The inhibition constants (Ki) for the compounds of the above examples were determined using purified HIV-1 protease (wild-type, WT) (Tables I, II, IV and V) and R8Q and V82I mutant HIV-1 proteases (Table III). Ki is an inhibition constant of a given compound as derived by enzyme kinetics. A low Ki represents a high affinity of the compound for the enzyme, i.e., tight binding or low dissociation. Inhibition of the cleavage was assayed using a fluorogenic substrate available from Molecular Probes, Inc., Eugene, Oreg., and described in Kageyama et al., Antimicrob. Agents. Chemother., 37, 272 (1993), and a fluorogenic substrate available from Bachem California, Torrance, Calif., and described in Kageyama et al. (1993), supra. The inhibitory potencies of these compounds are set forth in Tables I-V. Percent inhibition is the percentage inhibition of an enzyme's activity by a given compound at a given concentration.

A short description of data set [6]: Fluorescence of compounds. Format: physicochemical. The source says:
The determination of which compounds of the present invention fluoresce can be done in accordance with methods well-known to those of ordinary skill in the art. Such fluorescence can be used to assay for antiviral activity of newly discovered compounds. For example, a fluorescent compound of the present invention can be used as a standard in an antiviral activity assay. The fluorescence of the compound can be measured in the absence and presence of a viral enzyme, such as a retroviral enzyme, in particular a retroviral protease, e.g., an HIV protease, in vitro. A test compound can then be added to the test system comprising the fluorescent compound and the enzyme. The decreased fluorescence of the fluorescent compound of the present invention in the absence and presence of the test compound can be measured and quantitated as a measure of the antiviral activity of the test compound.

In data set [7] the target is T2, R8Q mutant HIV-1 protease (Human immunodeficiency virus type 1 group M subtype B, UniProt P04585, R496Q).
T2 construct: R8Q and V82I mutant HIV-1 proteases
In words: Inhibition of R8Q mutant HIV-1 protease (fluorogenic substrate cleavage). Format: biochemical. As to conditions: Table III. Here is the method: as §1

Data set [8] has as its target T3, V82I mutant HIV-1 protease (Human immunodeficiency virus type 1 group M subtype B, UniProt P04585, V570I).
T3 construct: R8Q and V82I mutant HIV-1 proteases
In words: Inhibition of V82I mutant HIV-1 protease (fluorogenic substrate cleavage). Format: biochemical. The settings on record: Table III. Here is the method:
as §1

[9] abbreviates: comparison compounds in clinical trials.
[10] abbreviates: Table III, wild-type HIV protease, read-out: Ki WT.

Several values for one entry are separate records, joined by “and”; a condition that tells them apart may be missing. Equal values may be shown once. Read-outs that look alike come from different tables or passages of the source.

The values that follow come from US6066656A, “2,5-diamino-3,4-disubstituted-1,6-diphenylhexane isosteres comprising benzamide, sulfonamide and anthranilamide subunits and methods of using same” (The United States of America as represented by the …, priority 1998, dated 2000).

`CC(C)(C)NC(=O)[C@@H]1C[C@@H]2CCCC[C@@H]2CN1C[C@@H](O)[C@H](Cc1ccccc1)NC(=O)[C@H](CC(N)=O)NC(=O)c1ccc2ccccc2n1` [Ro31-8959]: the EC50 – broadly, the midpoint of the concentration-response curve – in data set [1] (setting [9]) was 10 nM.
On to `O=C(Nc1ccccc1C(=O)N[C@@H](Cc1ccccc1)C[C@H](O)[C@H](Cc1ccccc1)NC(=O)c1ccccc1NC(=O)OCc1ccccn1)OCc1ccccn1` [Compound 36], for which the midpoint of the response in data set [2], the EC50, lay at 2.4 nM. Moreover, the toxicity result in data set [3] was “no toxicity”. Moreover, the minimal effective concentration in data set [4] was not below 0.01 µM.
For the compound `O=C(Nc1ccccc1C(=O)N[C@@H](Cc1ccccc1)[C@H](O)[C@H](O)[C@H](Cc1ccccc1)NC(=O)c1ccccc1NC(=O)OCc1ccccn1)OCc1ccccn1` [Compound 34], the Ki (usually a dissociation constant, usually derived from enzyme kinetics or from competition with a known ligand) was 0.06 nM in data set [5] (Table IV, read-out: Ki); 0.061 nM and 0.064 nM in data set [5] (read-out: Ki). Also, the EC50 in data set [2] came to 3.2 nM. Moreover, the fluorescence entry in data set [6] is given as “good fluorescence”.
For the compound `O=C(Nc1ccccc1C(=O)N[C@@H](Cc1ccccc1)[C@H](O)[C@H](O)[C@H](Cc1ccccc1)NC(=O)c1ccccc1NC(=O)OCc1ccccc1)OCc1ccccc1` [Compound 27], the Ki came to 2.4 nM in data set [5] (Table IV, read-out: Ki) and 2.4 nM in data set [5] (read-out: Ki). The “relative potency vs compound 26” value in data set [5] (more potent than compound 26) is listed as 20 times. The fluorescence result in data set [6] is listed as “good fluorescence”.
Regarding `CC(C)c1nc(CN(C)C(=O)N[C@H](C(=O)N[C@@H](Cc2ccccc2)C[C@H](O)[C@H](Cc2ccccc2)NC(=O)OCc2cncs2)C(C)C)cs1` [ABT538], the EC50 in data set [1] (setting [9]) is 36 nM.
Regarding `CSC[C@H](NC(=O)COc1cccc2cnccc12)C(=O)N[C@@H](Cc1ccccc1)[C@H](O)C(=O)N1CSC[C@H]1C(=O)NC(C)(C)C` [KNI272], the EC50 in data set [1] (setting [9]) is 4.2 nM.
For `CC(C)[C@H](NC(=O)N(C)Cc1ccccn1)C(=O)N[C@@H](Cc1ccccc1)[C@H](O)[C@H](O)[C@H](Cc1ccccc1)NC(=O)[C@@H](NC(=O)N(C)Cc1ccccn1)C(C)C` [Compound A77003], the EC50 in data set [1] (comparison compound in clinical trials, no unit printed (Ho et al.)) is 200 nM.
Consider `Nc1cccc(C(=O)N[C@@H](Cc2ccccc2)[C@H](O)[C@H](O)[C@H](Cc2ccccc2)NC(=O)c2cccc(N)c2)c1` [Compound 17], for which, in data set [5], the “inhibition of HIV PR (in words)” value is “potent inhibitors of HIV PR”. Also, the Ki in data set [5] (Table II, read-out: Ki) stood at 5 nM; in data set [5] (setting [10]), 5 nM; in data set [5] (read-out: Ki), 5 nM; in data set [7], 20 nM; in data set [8], 109 nM.
On to `Cc1ccc(O)cc1C(=O)N[C@@H](Cc1ccccc1)[C@H](O)[C@H](O)[C@H](Cc1ccccc1)NC(=O)c1cc(O)ccc1C` [Compound 15], for which the Ki in data set [5] (Table II, read-out: Ki) is 75 nM; in data set [5] (setting [10]), 75 nM; in data set [5] (read-out: Ki), 75 nM; in data set [7], 89 nM; in data set [8], 54 nM.
